80 compounds from patent US11339144B2 (Navitor Pharmaceuticals, Inc., priority 2017, dated 2022) can be followed below.

One may read the IC50 as the midpoint of a concentration-inhibition curve.

For one assay, the target named is HA-GST-Rheb (GTP-γ-S loaded) activating mTORC1 (Homo sapiens (Human), UniProt Q15382). The assay can be described thus: Rheb-dependent in vitro kinase assay (Rheb-IVK; LanthaScreen or Western readout). The format is biochemical. The settings on record: Rheb-dependent in vitro kinase assay. Further details: IVK IC50 (μM): scale not given here. (In TR-FRET formats the signal depends on donor and acceptor labels being close together.)
Sequence of HA-GST-Rheb (GTP-γ-S loaded) activating mTORC1 (Q15382 1-181): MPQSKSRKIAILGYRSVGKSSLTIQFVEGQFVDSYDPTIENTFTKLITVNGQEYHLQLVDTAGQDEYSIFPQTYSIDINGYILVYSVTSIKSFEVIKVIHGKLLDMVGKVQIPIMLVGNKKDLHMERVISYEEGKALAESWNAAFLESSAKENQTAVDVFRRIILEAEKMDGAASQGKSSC
As to `Cc1cc(Oc2ccccc2)cc2c1cc(CO)n2Cc1nc[nH]n1` [I-234], the “IVK IC50 (μM)” value is given as “E/F”.

The same assay, now with this note: Rheb-dependent in vitro kinase assay; read-out: IVK IC50.
For `CCn1c(CO)nc2cc(Cl)c(OCc3cccc(Cl)c3)cc21` [I-448], the IC50 is above 100 µM.
On the same count and under the same terms, as for `NC(=O)Cn1c(CO)nc2cc(Cl)c(OCc3ccccc3)cc21` [I-476], the figure is above 100 µM; as for `OCc1cc2c(C3CCCNC3)cc(Oc3ccccc3)cc2[nH]1` (centres unmarked) [I-219], above 100 µM.
The same measure, in the same setting: as for `OCc1nc2c(OCc3ccnc(Cl)n3)c(Cl)c(Cl)cc2[nH]1` [I-424], the figure is above 100 µM; as for `OCc1cc2c(C3CCNCC3)cc(Oc3ccccc3)cc2[nH]1` [I-199], above 100 µM.
The same measure, in the same setting: as for `Clc1cc2nc(-c3ccncc3)[nH]c2c(Cl)c1Cl` [I-353, 5,6,7-trichloro-2-(pyridin-4-yl)-1H-benzo[d]imidazole], the figure is above 3 µM.
Regarding `N#CCc1nc2cc(OCc3ccccc3)c(Cl)cc2[nH]1` [I-473], the IC50 is above 100 µM.
Same read-out and setting: as for `Clc1ccc(Cc2cccc3[nH]ccc23)cc1` [I-179], the figure is above 100 µM; as for `CCCn1c(CO)nc2cc(Cl)c(OCc3ccccc3)cc21` [I-480], above 100 µM.
Same read-out and setting: the same measure for `Cc1cc2c(Sc3ccc(Cl)cc3)cccc2[nH]1` [I-203]: above 100 µM; for `N#CCc1nc2c(OCc3ccccc3)c(Cl)ccc2[nH]1` [I-469]: above 100 µM; for `OCc1cc2ccc(Oc3ccccc3)cc2[nH]1` [I-286, (6-Phenoxy-1H-indol-2-yl)methanol]: 300 to 800 µM.
`OCc1nc2c(Br)cc(Oc3ccccc3)cc2n1Cc1nc[nH]n1` [I-406]: the 50% inhibitory concentration (IC50) is above 100 µM.
On the same count and under the same terms, the same measure for `Cn1ccc2c(NC3CCCNC3)cccc21` (centres unmarked) [I-298]: above 100 µM; for `OCc1nc2ccc(Oc3ccccc3)cc2n1Cc1nc[nH]n1` [I-397]: above 100 µM.
The same measure, in the same setting: the same measure for `OCc1nc2c(OCC3CCCN3)c(Cl)c(Cl)cc2[nH]1` (centres unmarked) [I-468]: above 100 µM; for `OCc1cc2c(Cl)cc(Oc3ccccc3)cc2n1Cc1c[nH]cn1` [I-174]: above 100 µM; for `COC(=O)c1ccc(Sc2cccc3[nH]ccc23)cc1` [I-188]: above 100 µM.
For the compound `OCc1cc2c(Oc3ccccc3F)cccc2[nH]1` [I-277, (4-(2-fluorophenoxy)-1H-indol-2-yl)methanol], the 50% inhibitory concentration (IC50) lay in the range of 300 to 800 µM.
Regarding `OCc1nc2c(OCC3CCCO3)c(Cl)c(Cl)cc2[nH]1` (centres unmarked) [I-400, (5,6-dichloro-4-((tetrahydrofuran-2-yl)methoxy)-1H-benzo[d]imidazol-2-yl) methanol bis (2,2,2-trifluoroacetate)], the half-inhibitory concentration (IC50) lay in the range of 100 to 300 µM.
`N#Cc1cccc(Cn2c(-c3ncco3)nc3cc(Cl)c(Cl)cc32)c1` [I-463]: the IC50 was above 100 µM.
On the same count and under the same terms, the same measure for `Cn1ccc(-c2cc(Oc3ccccc3)cc3[nH]c(CO)cc23)n1` [I-213]: above 100 µM; for `OCc1nc2cc(OCc3ccccc3)c(Cl)cc2n1Cc1nc[nH]n1` [I-403, (1-((1H-1,2,4-triazol-3-yl)methyl)-5-(benzyloxy)-6-chloro-1H-benzo[d]imidazol-2-yl)methanol]: 100 to 300 µM; for `OCc1nc2cc(OCc3ccccc3)c(Cl)cc2n1CC(F)(F)F` [I-457]: above 100 µM.
`O=C(O)CCc1cc2c(Oc3ccccc3)c(Cl)ccc2[nH]1` [I-253]: the IC50 was above 100 µM.
As to `Clc1cccc(Oc2cccc3[nH]ccc23)c1` [I-284, 4-(3-chlorophenoxy)-1H-indole], the half-maximal inhibitory concentration (IC50) fell in the range of 10 to 100 µM.
With `Clc1ccccc1Oc1cccc2[nH]ccc12` [I-285], the IC50 was above 100 µM.
Same read-out and setting: the same measure for `c1ccc(Oc2cccc3nc(-c4ncco4)n(Cc4ccc(-c5nn[nH]n5)cc4)c23)cc1` [I-422]: above 100 µM.
For `CCn1c(CO)nc2cc(OCCc3ccccc3)c(Cl)cc21` [I-430], the concentration for half-maximal inhibition (IC50) was above 100 µM.
With `[O-][S+](c1cccc(Cl)c1)c1cccc2[nH]ccc12` (centres unmarked) [I-233], the IC50 was above 100 µM.
On to `CCn1c(CO)nc2cc(OCc3ccc(Cl)cc3)c(Cl)cc21` [I-449], for which the IC50 is above 100 µM.
For the compound `OCc1cc2c(Br)cc(Oc3ccccc3)cc2n1Cc1ccc(-c2nn[nH]n2)cc1` [I-221], the IC50 was above 100 µM.
Turning to `NC(=O)Cn1c(CO)nc2cc(OCc3ccccc3)c(Cl)cc21` [I-475, 2-(5-(benzyloxy)-6-chloro-2-(hydroxymethyl)-1H-benzo[d]imidazol-1-yl)acetamide], the IC50 is 100 to 300 µM.
Still for that read-out and setting: the same measure for `OCc1nc2c(Oc3ccccc3)cccc2[nH]1` [I-470]: above 100 µM; for `COC(=O)c1cc(Sc2ccc(Cl)cc2)c2cc[nH]c2c1` [I-197]: above 100 µM; for `Cn1ccc2c(NC3CCNCC3)cccc21` [I-297, 1-methyl-N-(piperidin-4-yl)-1H-indol-4-amine]: 300 to 800 µM.
For the compound `O=S(=O)(c1cccc(Cl)c1)c1cccc2[nH]ccc12` [I-240], the IC50 is above 100 µM.
On the same count and under the same terms, as for `OCc1nc2c(OC[C@H]3CCCC[C@@H]3O)c(Cl)c(Cl)cc2n1Cc1cc(Cl)ccc1Cl` [I-393], the figure is above 100 µM; as for `Nc1nonc1-c1nc2cc(Cl)c(Cl)cc2n1Cc1ccc(-c2nn[nH]n2)cc1` [I-490, 4-(1-(4-(2H-tetrazol-5-yl)benzyl)-5,6-dichloro-1H-benzo[d]imidazol-2-yl)-1,2,5-oxadiazol-3-amine], 10 to 100 µM; as for `CCn1c(CO)nc2cc(Cl)c(OCc3ccc(F)cc3)cc21` [I-445], above 100 µM.
On the same count and under the same terms, the same measure for `Clc1ccc(Sc2cc(Cl)c3cc[nH]c3c2)cc1` [I-201, 4-chloro-6-(4-chlorophenylthio)-1H-indole]: 10 to 100 µM; for `Nc1ncccc1COc1c(Cl)c(Cl)cc2[nH]c(CO)nc12` [I-436]: above 100 µM.
On the same count and under the same terms, as for `OCc1nc2cc(OCc3ccccc3)c(Cl)cc2n1Cc1ccccc1` [I-466], the figure is above 100 µM; as for `CCn1c(CO)nc2ccc(OCc3ccccc3)cc21` [I-417], above 100 µM.
For `OCc1nc2c(OC[C@H]3CCCC[C@@H]3O)c(Cl)c(Cl)cc2n1Cc1nn[nH]n1` (racemic) [I-391, (+,−)-trans-2-((1-((2H-tetrazol-5-yl)methyl)-5,6-dichloro-2-(hydroxymethyl)-1H-benzo[d]imidazol-4-yloxy)methyl)cyclohexanol], the IC50 was in the range of 10 to 100 µM.
For the compound `c1ccc(Sc2cccc3[nH]ccc23)nc1` [I-210], the IC50 is above 100 µM.
On to `OCc1nc2c(Oc3ccccc3)c(Cl)ccc2[nH]1` [I-418, (5-chloro-4-phenoxy-1H-benzo[d]imidazol-2-yl)methanol], for which the IC50 lay in the range of 100 to 300 µM.
With `Cn1ccc2c(Oc3ccc(Cl)cc3)cccc21` [I-268], the IC50 is above 100 µM.
The same measure, in the same setting: as for `OCc1nc2cc(Cl)c(OCc3ccccc3)cc2n1CC(F)(F)F` [I-458], the figure is above 100 µM.
`CCn1c(CO)nc2cc(Cl)c(OCc3ccc(Cl)cc3)cc21` [I-450]: the IC50 was above 100 µM.
As for `Cn1cc(-c2cc(Oc3ccccc3)cc3[nH]c(CO)cc23)cn1` [I-227], the IC50 is above 100 µM.
In the case of `CCn1c(CO)nc2cc(Cl)c(OCCc3ccccc3)cc21` [I-431], the 50% inhibitory concentration (IC50) was above 100 µM.
Still for that read-out and setting: the same measure for `CCn1c(CO)nc2cc(Cl)c(OCc3ccccc3F)cc21` [I-454]: above 100 µM; for `OCc1cc2c(Oc3ccccc3Cl)cccc2[nH]1` [I-276, (4-(2-chlorophenoxy)-1H-indol-2-yl)methanol]: 100 to 300 µM; for `Cn1ccc2c(Oc3ccc(F)cc3)cccc21` [I-265]: above 100 µM.
Still for that read-out and setting: as for `Clc1cc2nc(-c3cnon3)n(Cc3ccc(-c4nn[nH]n4)cc3)c2cc1Cl` [I-474, 3-(1-(4-(2H-tetrazol-5-yl)benzyl)-5,6-dichloro-1H-benzo[d]imidazol-2-yl)-1,2,5-oxadiazole], the figure is 300 to 800 µM; as for `OCc1cc2c(C3CCCCC3)cc(Oc3ccccc3)cc2[nH]1` [I-223], above 100 µM.
On the same count and under the same terms, as for `Clc1ccc(Sc2cccc3cc[nH]c23)cc1` [I-217], the figure is above 100 µM; as for `N#Cc1ccccc1COc1c(Cl)c(Cl)cc2[nH]c(CO)nc12` [I-472], above 100 µM; as for `OCc1nc2cc(Cl)c(OCc3ccccc3)cc2n1Cc1nc[nH]n1` [I-402], above 100 µM.
As to `CCn1c(CO)nc2cc(OCc3ccccc3F)c(Cl)cc21` [I-461], the IC50 was above 100 µM.
The same measure, in the same setting: as for `OCc1nc2cc(OCc3ccc(F)cc3)c(Cl)cc2[nH]1` [I-482, (6-chloro-5-(4-fluorobenzyloxy)-1H-benzo[d]imidazol-2-yl)methanol], the figure is 100 to 300 µM; as for `Nc1ccnc(COc2c(Cl)c(Cl)cc3[nH]c(CO)nc23)n1` [I-420], above 100 µM.
The same measure, in the same setting: as for `OCc1cc2c(OCCc3ccccc3)cc(Cl)cc2[nH]1` [I-279], the figure is above 100 µM; as for `CCOCc1nc2c(Cl)cc(OCc3ccccc3)cc2n1CC` [I-415], above 100 µM; as for `CCn1c(CO)nc2cc(OCc3ccccc3)ccc21` [I-416], above 100 µM.
Still for that read-out and setting: as for `Cn1c(CO)cc2c(Oc3ccccc3)c(Cl)ccc21` [I-289], the figure is above 100 µM; as for `[O-][S+](c1ccccc1)c1cc(Br)c2cc(CO)[nH]c2c1` (centres unmarked) [I-229], above 100 µM; as for `N#Cc1cccc(COc2c(Cl)c(Cl)cc3[nH]c(CO)nc23)c1` [I-459], above 100 µM.
As for `CCn1c(CO)nc2cc(OCc3ccccc3)cc(Cl)c21` [I-412], the IC50 is above 100 µM.
On to `OCc1cc2ccc(Oc3ccccc3)cc2n1Cc1nc[nH]n1` [I-214], for which the IC50 was above 100 µM.
On to `Cn1c(CO)cc2c(OCc3ccccc3)cc(Cl)cc21` [I-292], for which the 50% inhibitory concentration (IC50) is above 100 µM.
Same read-out and setting: the same measure for `OCc1nc2cc(Cl)c(OCc3ccccc3)cc2n1Cc1ccccc1` [I-467]: above 100 µM.
Same read-out and setting: as for `CCn1c(CO)nc2c(Cl)cc(OCc3ccccc3)cc21` [I-413], the figure is above 100 µM; as for `OCc1nc2c(OC[C@H]3CCCC[C@@H]3O)c(Cl)c(Cl)cc2n1Cc1nc[nH]n1` [I-392], above 100 µM.
Regarding `CCn1c(CO)nc2cc(Cl)c(OCc3ccccc3Cl)cc21` [I-433], the IC50 was above 100 µM.
The same measure, in the same setting: as for “(4-(2-(2-aminopyridin-4-yl)ethoxy)-5,6-dichloro-1H-benzo[d]imidazol-2-yl)methanol [I-182]”, the figure is above 100 µM; as for `O=S(=O)(c1ccccc1)c1cc(Br)c2cc(CO)[nH]c2c1` [I-230], above 100 µM.
The same measure, in the same setting: the same measure for `Nc1nonc1-c1nc2cc(Cl)c(Cl)cc2[nH]1` [I-477]: above 100 µM.
